{
  "source": "patent US20250195528A1",
  "about": "“DOSE REGIMEN OF VICASINABIN” (Hoffmann-La Roche Inc., priority 2022, published 2025)",
  "key": {"cynomolgus monkey CB2": {"target": "cynomolgus monkey CB2 (Macaca fascicularis, UniProt G7NVV5)", "sequence (G7NVV5 1-360)": "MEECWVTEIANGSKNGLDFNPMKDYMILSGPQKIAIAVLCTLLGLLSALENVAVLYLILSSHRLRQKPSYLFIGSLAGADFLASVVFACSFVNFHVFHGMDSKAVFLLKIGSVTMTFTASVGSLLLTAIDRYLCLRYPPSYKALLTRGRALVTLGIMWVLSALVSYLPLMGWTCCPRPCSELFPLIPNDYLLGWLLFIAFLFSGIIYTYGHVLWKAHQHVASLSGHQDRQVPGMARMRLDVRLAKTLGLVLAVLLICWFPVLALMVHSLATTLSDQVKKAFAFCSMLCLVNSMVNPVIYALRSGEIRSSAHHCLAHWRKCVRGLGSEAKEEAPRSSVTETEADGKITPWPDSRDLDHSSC", "test": "Forskolin-stimulated cAMP inhibition in stably transfected CHO cells", "format": "cell-based", "text": "Inhibition of cAMP accumulation in Chinese hamster ovary cells stably expressing recombinant CB2 was used to determine the functional potency of RO6868847 for different CB2 species and the selectivity over the closely related CB1. […] Table 4 summarizes the potency from different CB2 species."}, "[1]": {"system": "LPS-induced cytokine production in whole blood", "test": "Ex vivo LPS whole blood challenge in participants of Study BP40387 (MAD)", "set-up": "species or system human", "procedure": "In addition to the CB2R-TE whole blood assay, an in vitro LPS whole blood challenge assay was applied using blood from healthy participants that received multiple 300 mg doses of RO6868847 6 in the MAD study.\nIn example 2, target engagement of RO6868847 was assessed on circulating B-cells from whole blood samples utilizing a newly developed exploratory flow cytometry assay to monitor RO6868847-induced CB2 receptor internalization on B-cells. […] Upon treatment discontinuation CB2 receptor surface expression returned to baseline approximately within 1 week. Target engagement appeared to reach a plateau at doses of 100 mg RO6868847 with only marginal increases at higher doses of RO6868847. In example 2, pro-inflammatory cytokine production was induced by ex vivo stimulation with LPS in freshly obtained whole blood samples, to measure downstream markers of RO6868847-mediated CB2 receptor internalization and explore its pharmacological profile. Serum levels of TNF-α, G-CSF, IL-1β, and […], of participants in Study BP40387 were assessed to investigate the changes of these cytokines in the presence of repeated dose administration of up to 300 mg RO6868847 once-daily for 14 days. […] It should be noted that the IL1-β analysis was negatively affected by a substantial proportion of baseline data, not being reportable (see FIG. 8), especially at the highest tested doses of 300 mg of RO6868847. Substantial variability in these measurements was observed. However, this was expected and no dedicated predefined statistical analysis was performed since cohort sizes were small for this exploratory assessment."}, "human CB1": {"target": "human CB1 (Homo sapiens, UniProt P21554)", "sequence (P21554 whole entry)": "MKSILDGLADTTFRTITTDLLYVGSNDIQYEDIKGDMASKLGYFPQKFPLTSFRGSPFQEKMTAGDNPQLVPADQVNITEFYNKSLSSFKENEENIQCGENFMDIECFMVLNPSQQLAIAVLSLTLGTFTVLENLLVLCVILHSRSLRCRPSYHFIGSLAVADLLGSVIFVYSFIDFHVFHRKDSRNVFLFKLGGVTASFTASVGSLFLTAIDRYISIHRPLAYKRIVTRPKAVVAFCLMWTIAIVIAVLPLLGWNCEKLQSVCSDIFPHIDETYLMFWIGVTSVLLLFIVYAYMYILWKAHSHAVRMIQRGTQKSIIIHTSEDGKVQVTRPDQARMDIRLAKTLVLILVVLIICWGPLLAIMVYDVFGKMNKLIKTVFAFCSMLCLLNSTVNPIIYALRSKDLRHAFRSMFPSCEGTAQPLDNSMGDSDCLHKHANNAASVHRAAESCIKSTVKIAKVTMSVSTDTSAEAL", "test": "Human CB1 cAMP assay", "format": "cell-based", "text": "Inhibition of cAMP accumulation in Chinese hamster ovary cells stably expressing recombinant CB2 was used to determine the functional potency of RO6868847 for different CB2 species and the selectivity over the closely related CB1."}, "clinical": {"test": "clinical", "conditions": "both, human, plasma, oral", "experimental": "(§1) Study BP40387 was a Phase I study that was conducted in healthy male and female participants, and included 5 parts. Part 1 (SAD) consisted of an adaptive, single-ascending-dose, investigator/participant-blind, randomized, placebo-controlled, parallel study to investigate the safety, tolerability, and pharmacokinetics of RO6868847. Part 2 (FE), was designed as an open-label, randomized, two-period crossover, single dose investigation of the effect of food on the pharmacokinetics of RO6868847. Part 3 (MAD), was an adaptive, multiple-ascending-dose, investigator/participant-blind, randomized, placebo-controlled, parallel study to investigate the safety, tolerability, and pharmacokinetics of RO6868847 administered once-daily for 14 days. Part 4 (DDI-CYP Induction), was a non-randomized, open-label, fixed-sequence, two-period study to explore RO6868847-mediated CYP induction at 300 mg administered once-daily for 14 days, using midazolam, repaglinide, and bupropion as probe substrates for CYP3A, CYP2C8, and CYP2B6, respectively. […] Overall, in Part 1 (SAD), a total of 33 healthy participants received single oral doses of RO6868847 ranging between 0.75 mg and 300 mg, and 12 participants received placebo under fasting conditions. In Part 2 (FE), 8 participants received a single oral dose of 100 mg RO6868847 once after an overnight fast of at least 10 hours and once within 30 minutes after starting a high-calorie, high-fat breakfast. In Part 3 (MAD), a total of 30 participants received multiple oral doses of 6 mg to 300 mg RO6868847 QD for 14 days, and 10 participants received placebo."}, "[2]": {"system": "15-lipoxygenase, MAGL, diacylglycerol lipase, or FAAH enzymes", "test": "Functional cellular assays, enzymes of the endocannabinoid pathway", "format": "cell-based", "conditions": "10 μM in mouse"}, "[3]": {"system": "131 targets along with 57 CNS- and abuse potential-specific targets", "test": "In vitro pharmacology profile on target panels", "conditions": "30 μM", "procedure": "The in vitro pharmacology profile of RO6868847 was evaluated at concentration of 30 μM on panels including 131 targets along with 57 CNS- and abuse potential-specific targets."}, "[4]": {"test": "Study BP40387 Part 3 (MAD) pharmacokinetics, once daily for 14 days;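 note: phase I trial BP40387 in healthy male and female volunteers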", "experimental": "as §1"}, "[5]": {"system": "15-lipoxygenase, MAGL, diacylglycerol lipase, or FAAH enzymes", "test": "Functional cellular assays, enzymes of the endocannabinoid pathway", "format": "cell-based", "conditions": "up to 500 μM in human targets"}, "[6]": {"set-up": "species or system human", "conditions": "in vivo", "text": "In Study BP40387, in Part 1, 11 participants (24.4%), Part 2, 1 participant (12.5%), Part 3, 16 participants (40%), Part 4, 12 participants (70.6%) and Part 5, 2 participants (11.1%), had reported at least 1 AE (see Table 22). One participant (5.9%) in Part 4 of the study was withdrawn by the investigator because of AEs. The AEs reported in more than 2 participants in Part 1 was medical device site erythema (6 participants in each PT) and vascular procedure complication (2 participants in each PT), in Part 3 was medical device site erythema (5 participants in each PT), constipation (3 participants in each PT) medical device site papule, medical device site pruritus, vascular procedure complication, headache (each 2 participants), and in Part 4 constipation (2 participants in each PT). […] The event was considered to be related to vicasinabin by the investigator and resolved without sequelae within one week after treatment discontinuation."}, "human CB2": {"target": "T1, human CB2 (Homo sapiens, UniProt P34972)", "T1 construct": "expressed in transfected cells; host or cells: CHO cells", "T1 sequence (P34972 whole entry)": "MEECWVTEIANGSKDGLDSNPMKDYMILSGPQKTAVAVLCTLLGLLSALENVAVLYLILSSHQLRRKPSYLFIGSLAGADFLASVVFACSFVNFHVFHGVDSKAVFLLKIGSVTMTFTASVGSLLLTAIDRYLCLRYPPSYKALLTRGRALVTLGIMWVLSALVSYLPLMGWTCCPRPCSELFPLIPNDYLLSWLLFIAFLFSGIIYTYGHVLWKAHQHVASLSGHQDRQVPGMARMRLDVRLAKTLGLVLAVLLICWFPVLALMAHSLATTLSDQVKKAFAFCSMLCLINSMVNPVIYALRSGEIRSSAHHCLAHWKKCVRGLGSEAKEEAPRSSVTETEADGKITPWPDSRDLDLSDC", "test": "Radioligand binding to CB2, CHO cells expressing recombinant CB2"}, "leukostasis in the eye": {"system": "leukostasis in the eye", "test": "Leukostasis in the eye, rodent diabetic and non-diabetic model", "format": "in vivo", "procedure": "Pharmacological studies were performed in vitro and in vivo to investigate the potency, selectivity and activity of RO6868847. Pharmacological effects were determined in vivo in two different diabetic animal models which include the streptozotocin (STZ)-induced rat Type 1 diabetes and genetic Type 2 diabetes mouse models as well as in two acute models with acute inflammatory stimulus (LPS-injections) or laser injury (CNV). Additional in vitro pharmacology studies were performed to explore the pharmacological effect of RO6868847 and the suitability of the assays as biomarkers of target engagement and pharmacodynamic effect (PD) in human whole blood obtained from either healthy volunteers or diabetic patients.\nThe diversity of the tested models (including acute challenge versus disease-modifying models) and the absence of a recommended nonclinical DME/DR model with proven clinical translatability presents a challenge for the estimation of pharmacologically active exposure in humans."}, "[7]": {"conditions": "steady-state, up to 300 mg once-daily for 14 days"}},
  "note": "Entries after “also recorded” stand apart in the source; their conditions may differ.",
  "data": [
    {"compound": "Cn1nnnc1Cn1nnc2c(N3CC[C@H](O)C3)nc(C(C)(C)C)nc21", "note": "[RO6868847, (3S)-1-[5-tert-butyl-3-[(1-methyltetrazol-5-yl)methyl]triazolo[4,5-d]pyrimidin-7-yl]pyrrolidin-3-ol]", "values": [
      {"measurement": "IC50", "setting": "cynomolgus monkey CB2; CHO cells", "result": "1.06 ± 0.08", "unit": "nM"},
      {"measurement": "Emax", "setting": "cynomolgus monkey CB2; CHO, normalized to 10 μM CP55′940", "result": 94.6, "unit": "%"},
      {"measurement": "LPS-induced cytokine release / pro-inflammatory cytokine production", "setting": "[1]; multiple doses, MAD", "result": "appeared to attenuate; also recorded: attenuation of LPS-induced cytokine release was observed only at the higher end of the dose range"},
      {"measurement": "IFN-γ level after ex vivo LPS vs baseline", "setting": "[1]; [7]", "result": "did not show any detectable trend"},
      {"measurement": "TNF-α, G-CSF and IL1-β levels after ex vivo LPS vs baseline", "setting": "[1]; [7]", "result": "concentration-dependent effect"},
      {"measurement": "EC50", "setting": "human CB1", "result": "> 10000", "unit": "nM"},
      {"measurement": "IC50", "setting": "human CB1", "result": "> 10000", "unit": "nM"},
      {"measurement": "CB1/CB2 Ratio (functional selectivity)", "setting": "human CB1; CB1 EC50 over CB2 EC50", "result": ">3600", "unit": "fold"},
      {"measurement": "receptor activation or inhibition", "setting": "human CB1; highest concentration of 10 μM", "result": "no receptor activation or inhibition"},
      {"measurement": "half-life", "setting": "clinical", "result": "8.27 to 39", "unit": "h"},
      {"measurement": "AUC", "setting": "clinical; 6 mg", "result": 870, "unit": "ng·h/mL"},
      {"measurement": "Cmax", "setting": "clinical; 6 mg", "result": 97.9, "unit": "ng/mL"},
      {"measurement": "half-life", "setting": "clinical; 6 mg", "result": 8.27, "unit": "h"},
      {"measurement": "AUC", "setting": "clinical; 20 mg", "result": 2610, "unit": "ng·h/mL"},
      {"measurement": "Cmax", "setting": "clinical; 20 mg", "result": 289, "unit": "ng/mL"},
      {"measurement": "Tmax", "setting": "clinical; 20 mg", "result": 1.06, "unit": "h"},
      {"measurement": "half-life", "setting": "clinical; 20 mg", "result": 15, "unit": "h"},
      {"measurement": "AUC", "setting": "clinical; 60 mg", "result": 8480, "unit": "ng·h/mL"},
      {"measurement": "Cmax", "setting": "clinical; 60 mg", "result": 899, "unit": "ng/mL"},
      {"measurement": "Tmax", "setting": "clinical; 60 mg", "result": 2, "unit": "h"},
      {"measurement": "half-life", "setting": "clinical; 60 mg", "result": 31.6, "unit": "h"},
      {"measurement": "AUC", "setting": "clinical; 200 mg", "result": 21400, "unit": "ng·h/mL"},
      {"measurement": "Cmax", "setting": "clinical; 200 mg", "result": 2380, "unit": "ng/mL"},
      {"measurement": "Tmax", "setting": "clinical; 200 mg", "result": 3, "unit": "h"},
      {"measurement": "AUC", "setting": "clinical; 300 mg", "result": 27100, "unit": "ng·h/mL"},
      {"measurement": "Cmax", "setting": "clinical; 300 mg", "result": 2970, "unit": "ng/mL"},
      {"measurement": "Tmax", "setting": "clinical; 300 mg", "result": 2.5, "unit": "h"},
      {"measurement": "half-life", "setting": "clinical; 300 mg", "result": 39, "unit": "h"},
      {"measurement": "activity at endocannabinoid pathway enzymes", "setting": "[2]", "result": "no activity"},
      {"measurement": "selectivity for CB2 in panels", "setting": "[3]", "result": "high selectivity for CB2 in all the panels"},
      {"measurement": "time dependence of pharmacokinetics", "setting": "[4]; in vivo", "result": "absence of relevant PK time dependencies; also recorded: no evidence of time-dependent pharmacokinetics"},
      {"measurement": "time to steady state", "setting": "[4]; once-daily dosing", "result": "approximately after the second day of dosing; also recorded: approximately after the second day of treatment"},
      {"measurement": "accumulation of Cmax and AUCtau", "setting": "[4]; once-daily dosing, independent of dose", "result": "only minor accumulation"},
      {"measurement": "activity at endocannabinoid pathway enzymes", "setting": "[5]", "result": "no activity"},
      {"measurement": "participants withdrawn because of AEs", "setting": "[6]; both, human, 14 days", "result": 5.9, "unit": "%"},
      {"measurement": "clinical laboratory parameters, ECGs, vital signs, C-SSRS, VAS, TBNK assay, neurological examinations", "setting": "[6]", "result": "No specific concerns"},
      {"measurement": "IC50", "setting": "human CB2", "result": "117 ± 26.3", "unit": "nM"},
      {"measurement": "Ki", "setting": "human CB2", "result": 51.3, "unit": "nM"},
      {"measurement": "leukostasis in the eye", "setting": "leukostasis in the eye", "result": "inhibition of leukostasis in the eye"}
    ]}
  ]
}
